Test results as given in ChEMBL document CHEMBL2074395, “NF-kappaB-mediated induction of mdr1b expression by insulin in rat hepatoma cells” (J Biol Chem, 1997).

Biological target: ATP-dependent translocase ABCB1 (Rattus norvegicus, UniProt P43245)
Test: TP_TRANSPORTER: RNase protection assay in H-4-II-E cells
Assay type: functional, cell-based

ATP-dependent translocase ABCB1, sequence (P43245 whole entry): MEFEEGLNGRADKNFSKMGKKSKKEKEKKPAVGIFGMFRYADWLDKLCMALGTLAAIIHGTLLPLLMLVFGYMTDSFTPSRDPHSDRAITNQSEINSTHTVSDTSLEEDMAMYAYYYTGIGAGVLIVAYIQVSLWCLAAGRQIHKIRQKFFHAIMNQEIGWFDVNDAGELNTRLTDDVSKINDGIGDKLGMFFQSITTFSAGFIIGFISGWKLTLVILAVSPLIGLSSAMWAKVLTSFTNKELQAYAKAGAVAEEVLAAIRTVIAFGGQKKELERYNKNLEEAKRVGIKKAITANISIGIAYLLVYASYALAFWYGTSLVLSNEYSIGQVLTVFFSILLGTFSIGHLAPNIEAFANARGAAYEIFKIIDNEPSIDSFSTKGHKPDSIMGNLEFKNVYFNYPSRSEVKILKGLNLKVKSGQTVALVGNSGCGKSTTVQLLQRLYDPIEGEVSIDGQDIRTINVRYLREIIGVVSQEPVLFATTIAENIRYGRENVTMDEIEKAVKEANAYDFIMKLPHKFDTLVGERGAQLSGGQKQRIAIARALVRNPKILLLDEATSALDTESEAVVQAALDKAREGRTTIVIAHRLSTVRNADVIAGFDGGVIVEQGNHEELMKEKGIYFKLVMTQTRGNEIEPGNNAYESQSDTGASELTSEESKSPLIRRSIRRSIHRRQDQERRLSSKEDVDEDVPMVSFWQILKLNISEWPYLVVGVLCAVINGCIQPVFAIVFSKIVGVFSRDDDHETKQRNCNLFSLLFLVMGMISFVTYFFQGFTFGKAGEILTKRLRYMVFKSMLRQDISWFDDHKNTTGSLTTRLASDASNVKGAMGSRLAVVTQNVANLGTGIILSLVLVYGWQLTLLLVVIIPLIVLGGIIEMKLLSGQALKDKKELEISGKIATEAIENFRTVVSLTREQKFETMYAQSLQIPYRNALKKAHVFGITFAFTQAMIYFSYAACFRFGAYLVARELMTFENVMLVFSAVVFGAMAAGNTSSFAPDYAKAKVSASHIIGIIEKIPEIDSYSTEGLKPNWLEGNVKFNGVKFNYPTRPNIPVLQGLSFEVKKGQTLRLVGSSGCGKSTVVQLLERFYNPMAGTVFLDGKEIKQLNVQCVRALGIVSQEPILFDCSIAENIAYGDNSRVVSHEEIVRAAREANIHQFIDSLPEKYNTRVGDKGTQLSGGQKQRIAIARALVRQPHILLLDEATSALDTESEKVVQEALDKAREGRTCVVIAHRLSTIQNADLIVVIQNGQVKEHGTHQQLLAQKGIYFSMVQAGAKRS

Activity: inducer [+]
Substance: INSULIN HUMAN
